Data: article PMC6689431 (Biochimica et biophysica acta. Biomembranes, 2019)

What was measured:
[1] = Fluorescence intensity of TAMRA-labeled peptides at different pH / buffers; assay type: physicochemical; conditions: 0.2 µM peptide; for fluorescence intensity in Tris buffer pH 8: 50 mM Tris pH 8, λex 544/λem 590 nm, mean ± SD
[2] = Fluorescence intensity of TAMRA-labeled peptides with detergents; assay type: physicochemical; conditions: 0.2 µM peptide, 50 mM Tris pH 8 + 0.1% (w/v) SDS, no cells, λex 544/λem 590 nm

Substance | fluorescence intensity in Tris buffer pH 8 [1] | increase of fluorescence intensity in Tris+SDS compared to Tris buffer alone [2] [×] | decrease of fluorescence intensity, citric acid versus Tris buffer, both pH 8 [1] [%]
^*-GRKKRRQRRRPPQ-ANSRWPTSII [*Tat-iCAL36] | 103,693 ± 2,848 |  | 
^*-GALFLGWLGAAGSTMGAWSQPKKKRKV-ANSRWPTSII [*MPG-iCAL36] | 68,132 ± 5,731 | 7 | 36
^*-LLRLLRWWWRLLRLL-ANSRWPTSII [*WRAP5-iCAL36] |  | 15 | 
^*-RLWRLLWRLWRRLWRLLR-ANSRWPTSII [*C6M1-iCAL36] |  | 9 | 
